Assays:
[1] = biological target: T1, human TGR5 (h-TGR5) (Homo sapiens, UniProt Q8TDU6); assay: TGR5/CRE-Luciferase Assay; assay type: cell-based; conditions: HEK 293 hTGR5/CRE-Luc cells, 6 hours incubation, read-out: CRE-Luc Agonist (EC50)
T1 sequence (Q8TDU6 1-330): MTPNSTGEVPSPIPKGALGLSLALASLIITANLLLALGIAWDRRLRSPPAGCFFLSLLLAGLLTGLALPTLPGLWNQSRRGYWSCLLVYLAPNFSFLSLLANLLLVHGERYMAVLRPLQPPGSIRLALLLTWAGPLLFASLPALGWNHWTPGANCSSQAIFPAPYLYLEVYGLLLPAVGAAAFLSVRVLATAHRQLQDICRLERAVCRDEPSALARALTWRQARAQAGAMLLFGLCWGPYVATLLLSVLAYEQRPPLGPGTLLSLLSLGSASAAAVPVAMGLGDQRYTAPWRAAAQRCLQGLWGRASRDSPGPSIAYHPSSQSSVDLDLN
In short: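 HEK 293 CRE-Luciferase cells stably expressing the receptor, plated in DMEM 18-20 h before assay, then exposed to serially diluted compounds (DMEM with 5% DMSO) for 6 h. Luciferase read-out after lysis; EC50 from dose-response.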

[2] = biological target: T2, h-TGR5 (Homo sapiens, UniProt Q8TDU6); assay: TGR5 cAMP Assay using Cisbio cAMP Dynamic 2 htrf assay kit; assay type: cell-based; conditions: hTGR5CRE-luc HEK 293 cells
T2 sequence (Q8TDU6 1-330): T1 sequence (Q8TDU6 1-330)

SMILES | EC50 [1] [nM] | EC50 [2] [nM]
COC(=O)c1cc(-n2c(C(C)(C)c3ccc(Cl)c(OC)c3)cnc2SCc2c(F)cc(S(=O)(=O)NCCC[N+](C)(C)C)cc2F)ccc1F [Example 6g, 3-{[(4-{[(5-{1-[4-chloro-3-(methyloxy)phenyl]-1-methylethyl}-1-{4-fluoro-3-[(methyloxy)carbonyl]phenyl}-1H-imidazol-2-yl)thio]methyl}-3,5-difluorophenyl)sulfonyl]amino}-N,N,N-trimethylpropan-1-aminium] | 100 to 1000 | 100 to 1000
COc1cc(C(C)(C)c2cnc(SCc3c(F)cc(S(=O)(=O)N(CCC[N+](C)(C)C)CCC[N+](C)(C)C)cc3F)n2-c2ccc(F)cc2)ccc1Cl [Example 6i, 3,3′-({[4-({[5-{1-[4-chloro-3-(methyloxy)phenyl]-1-methylethyl}-1-(4-fluorophenyl)-1H-imidazol-2-yl]thio}methyl)-3,5-difluorophenyl]sulfonyl}imino)bis(N,N,N-trimethylpropan-1-aminium)] | 100 to 1000 | < 100
COc1cc(C(C)(C)c2cnc(SCc3ccc(Cl)c(S(=O)(=O)NCCC[N+](C)(C)C)c3)n2-c2ccc(F)cc2)ccc1Cl [Example 6l, 3-({[2-chloro-5-({[5-{1-[4-chloro-3-(methyloxy)phenyl]-1-methylethyl}-1-(4-fluorophenyl)-1H-imidazol-2-yl]thio}methyl)phenyl]sulfonyl}amino)-N,N,N-trimethylpropan-1-aminium] | < 100 | < 100
CC[N+](CC)(CC)CCCNS(=O)(=O)c1cc(F)c(CSc2ncc(C(C)(C)c3ccc(Cl)c(OC)c3)n2-c2ccc(F)cc2)c(F)c1 [Example 6m, 3-({[4-({[5-{1-[4-chloro-3-(methyloxy)phenyl]-1-methylethyl}-1-(4-fluorophenyl)-1H-imidazol-2-yl]thio}methyl)-3,5-difluorophenyl]sulfonyl}amino)-N,N,N-triethylpropan-1-aminium] | < 100 | < 100
COc1ccc(C(C)(C)c2cnc(SCc3c(F)cc(S(=O)(=O)NCCC[N+](C)(C)C)cc3F)n2-c2ccc(F)cc2)cc1Cl [Example 6n, 3-({[4-({[5-{1-[3-chloro-4-(methyloxy)phenyl]-1-methylethyl}-1-(4-fluorophenyl)-1H-imidazol-2-yl]thio}methyl)-3,5-difluorophenyl]sulfonyl}amino)-N,N,N-trimethylpropan-1-aminium] | < 100 | < 100
CC[N+](CC)(CC)CCCNS(=O)(=O)c1cc(F)c(CSc2ncc(C(C)(C)c3ccc(F)c(OC)c3)n2-c2ccc(F)cc2)c(Cl)c1 [Example 6o, 3-({[3-chloro-5-fluoro-4-({[5-{1-[4-fluoro-3-(methyloxy)phenyl]-1-methylethyl}-1-(4-fluorophenyl)-1H-imidazol-2-yl]thio}methyl)phenyl]sulfonyl}amino)-N,N,N-triethylpropan-1-aminium] | < 100 | < 100
COc1cc(C(C)(C)c2cnc(SCc3cc(S(=O)(=O)N(CCC[N+](C)(C)C)CCC[N+](C)(C)C)c(F)cc3Cl)n2-c2ccc(F)cc2)ccc1Cl [Example 6p, 3,3′-({[4-chloro-5-({[5-{1-[4-chloro-3-(methyloxy)phenyl]-1-methylethyl}-1-(4-fluorophenyl)-1H-imidazol-2-yl]thio}methyl)-2-fluorophenyl]sulfonyl}imino)bis(N,N,N-trimethylpropan-1-aminium)] | 100 to 1000 | 100 to 1000
COc1cc(C(C)(C)c2cnc(SCc3cc(S(=O)(=O)NCCC[N+](C)(C)C)c(Cl)cc3F)n2-c2ccc(F)cc2)ccc1Cl [Example 6q, 3-({[2-chloro-5-({[5-{1-[4-chloro-3-(methyloxy)phenyl]-1-methylethyl}-1-(4-fluorophenyl)-1H-imidazol-2-yl]thio}methyl)-4-fluorophenyl]sulfonyl}amino)-N,N,N-trimethylpropan-1-aminium] | < 100 | < 100
COc1cc(C(C)(C)c2cnc(SCc3c(F)cc(S(=O)(=O)NCCCC[N+](C)(C)C)cc3F)n2-c2ccc(F)cc2)ccc1Cl [Example 6r, 4-({[4-({[5-{1-[4-chloro-3-(methyloxy)phenyl]-1-methylethyl}-1-(4-fluorophenyl)-1H-imidazol-2-yl]thio}methyl)-3,5-difluorophenyl]sulfonyl}amino)-N,N,N-trimethylbutan-1-aminium] | < 100 | < 100
COc1cc(C(C)(C)c2cnc(SCc3cc(S(=O)(=O)NCCC[N+](C)(C)C)c(F)cc3Cl)n2-c2ccc(F)cc2)ccc1Cl [Example 7, 3-(4-Chloro-5-((5-(2-(4-chloro-3-methoxyphenyl)propan-2-yl)-1-(4-fluorophenyl)-1H-imidazol-2-ylthio)methyl)-2-fluorophenylsulfonamido)-N,N,N-trimethylpropan-1-aminium 2,2,2-trifluoroacetate] | < 100 | < 100
COc1cc(C(C)(C)c2cnc(SCc3c(F)ccc(S(=O)(=O)NCCC[N+](C)(C)C)c3F)n2-c2ccc(F)cc2)ccc1Cl [Example 7a, 3-({[3-({[5-{1-[4-chloro-3-(methyloxy)phenyl]-1-methylethyl}-1-(4-fluorophenyl)-1H-imidazol-2-yl]thio}methyl)-2,4-difluorophenyl]sulfonyl}amino)-N,N,N-trimethylpropan-1-aminium] | < 100 | < 100

Second part, the molecule after the results:

EC50 [1] [nM] | EC50 [2] [nM] | SMILES
< 100 | < 100 | COc1cc(-n2c(C(C)(C)c3ccc(S(N)(=O)=O)c(Cl)c3)cnc2SCc2c(F)cc(S(=O)(=O)NCCC[N+](C)(C)C)cc2F)ccc1F [Example 6b, 3-{[(4-{[(5-{1-[4-(aminosulfonyl)-3-chlorophenyl]-1-methylethyl}-1-[4-fluoro-3-(methyloxy)phenyl]-1H-imidazol-2-yl)thio]methyl}-3,5-difluorophenyl)sulfonyl]amino}-N,N,N-trimethylpropan-1-aminium]
< 100 | < 100 | CC[N+](CC)(CC)CCCNS(=O)(=O)c1cc(F)c(CSc2ncc(C(C)(C)c3ccc(Cl)c(OC)c3)n2-c2ccc(F)cc2)c(Cl)c1 [Example 6c, 3-({[3-chloro-4-({[5-{1-[4-chloro-3-(methyloxy)phenyl]-1-methylethyl}-1-(4-fluorophenyl)-1H-imidazol-2-yl]thio}methyl)-5-fluorophenyl]sulfonyl}amino)-N,N,N-triethylpropan-1-aminium]
< 100 | < 100 | COc1cc(C(C)(C)c2nnc(SCc3c(F)cc(S(=O)(=O)NCCC[N+](C)(C)C)cc3F)n2-c2ccc(F)cc2)ccc1Cl [Example 6d, 3-({[4-({[5-{1-[4-chloro-3-(methyloxy)phenyl]-1-methylethyl}-4-(4-fluorophenyl)-4H-1,2,4-triazol-3-yl]thio}methyl)-3,5-difluorophenyl]sulfonyl}amino)-N,N,N-trimethylpropan-1-aminium]
< 100 | < 100 | COc1cc(-n2c(C(C)(C)c3ccc(Cl)c(Cl)c3)cnc2SCc2c(F)cc(S(=O)(=O)NCCC[N+](C)(C)C)cc2F)ccc1F [Example 6e, 3-[({4-[({5-[1-(3,4-dichlorophenyl)-1-methylethyl]-1-[4-fluoro-3-(methyloxy)phenyl]-1H-imidazol-2-yl}thio)methyl]-3,5-difluorophenyl}sulfonyl)amino]-N,N,N-trimethylpropan-1-aminium]
< 100 | < 100 | COc1cc(C(C)(C)c2cnc(SCc3c(F)cc(S(=O)(=O)NCCC[N+](C)(C)C)cc3F)n2-c2ccc(F)cc2)ccc1F [Example 6f, 3-({[3,5-difluoro-4-({[5-{1-[4-fluoro-3-(methyloxy)phenyl]-1-methylethyl}-1-(4-fluorophenyl)-1H-imidazol-2-yl]thio}methyl)phenyl]sulfonyl}amino)-N,N,N-trimethylpropan-1-aminium]
< 100 | < 100 | COc1cc(-n2c(C(C)(C)c3ccc(F)c(Cl)c3)cnc2SCc2c(F)cc(S(=O)(=O)NCCC[N+](C)(C)C)cc2F)ccc1F [Example 6h, 3-[({4-[({5-[1-(3-chloro-4-fluorophenyl)-1-methylethyl]-1-[4-fluoro-3-(methyloxy)phenyl]-1H-imidazol-2-yl}thio)methyl]-3,5-difluorophenyl}sulfonyl)amino]-N,N,N-trimethylpropan-1-aminium]
< 100 | < 100 | COc1cc(C(C)(C)c2cnc(SCc3c(F)cc(S(=O)(=O)NCCC[N+](C)(C)C)cc3Cl)n2-c2ccc(F)cc2)ccc1Cl [Example 6j, 3-({[3-chloro-4-({[5-{1-[4-chloro-3-(methyloxy)phenyl]-1-methylethyl}-1-(4-fluorophenyl)-1H-imidazol-2-yl]thio}methyl)-5-fluorophenyl]sulfonyl}amino)-N,N,N-trimethylpropan-1-aminium]
< 100 | < 100 | COc1cc(C(C)(C)c2cnc(SCc3c(F)cc(S(=O)(=O)NCC[N+](C)(C)C)cc3F)n2-c2ccc(F)cc2)ccc1Cl [Example 6k, 2-({[4-({[5-{1-[4-chloro-3-(methyloxy)phenyl]-1-methylethyl}-1-(4-fluorophenyl)-1H-imidazol-2-yl]thio}methyl)-3,5-difluorophenyl]sulfonyl}amino)-N,N,N-trimethylethanaminium]

— US8846739B2, “TGR5 agonists” (Exelixis Patent Company LLC, priority 2009, dated 2014)
